Data on 25 compounds can be found in US12630528B2, “Amino aryl derivative useful as diacylglycerol acyltransferase 2 inhibitor and use thereof” (LG CHEM, LTD., priority 2019, dated 2026).

For orientation: IC50 means the concentration that gives 50% inhibition.

In the experiment the target is T1, human DGAT2 (Homo sapiens, UniProt Q96PD7).
T1 construct: FLAG (DYKDDDDK); made in house; host or cells: Sf-21 insect cells (BacPAK baculovirus system); membrane fraction used
T1 sequence (Q96PD7 1-388): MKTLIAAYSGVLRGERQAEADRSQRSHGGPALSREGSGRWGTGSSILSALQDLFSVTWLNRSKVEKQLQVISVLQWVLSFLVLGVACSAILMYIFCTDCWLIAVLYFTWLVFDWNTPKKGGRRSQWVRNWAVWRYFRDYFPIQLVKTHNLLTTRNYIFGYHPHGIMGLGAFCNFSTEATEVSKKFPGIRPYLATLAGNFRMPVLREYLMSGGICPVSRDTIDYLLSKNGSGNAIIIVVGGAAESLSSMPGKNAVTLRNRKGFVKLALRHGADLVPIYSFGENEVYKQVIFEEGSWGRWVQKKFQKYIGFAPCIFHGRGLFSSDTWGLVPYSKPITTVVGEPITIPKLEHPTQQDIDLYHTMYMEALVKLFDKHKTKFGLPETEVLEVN
The experiment can be described thus: DGAT2 enzyme activity inhibition, Phospholipid FlashPlate SPA. The following applies: recombinant human DGAT2 membrane protein from Sf-21 cells; inhibition of [14C]-TG production; 37° C. Format: biochemical. How it is done:
In order to prepare the pBacPAK9-DGAT2, which is DGAT2 expression vector, the human DGAT2 gene amplified by polymerase chain reaction (PCR) was cloned into the EcoR1 and Xho1 sites of the pBacPAK9 (clonctech) vector. The nucleotide sequence of the primers used in PCR was the forward primer 5′ […] (SEQ. ID. NO: 2). The composition of the reaction solution was to contain 50 ng of cDNA clone (OriGene), 200 μM of dATP, dCTP, dTTP, dGTP, 200 nM of each primer, 1 unit of Tag DNA Polymerase (Toyobo), 1×PCR buffer, and the final volume was adjusted to 20 μl. The reaction conditions were denatured at 95° C. for 5 minutes, followed by 30 times of 94° C. for 20 seconds, 60° C. for 20 seconds, and 72° C. for 90 seconds, followed by further reaction at 72° C. for 7 minutes.
Recombinant human DGAT2 protein was expressed in Sf-21 cells, which are insect cells, by using the BacPack baculovirus expression system (Clontech). The brief manufacturing process is as follows. First, the pBacPAK9-DGAT2 expression vector was transfected with BacPAK6 virus DNA (Bsu36I digest) into sf21 cells using Bacfectin to prepare a recombinant DGAT2 expressing baculovirus. The thus prepared baculovirus was infected with Sf-21 cells at 10 MOI (multiplicity of infection), and after 72 hours, infected insect cells were collected and membrane proteins were isolated. For membrane protein separation, the cell pellet was dissolved in a sucrose solution containing 250 mM sucrose, 10 mM Tris (pH 7.4), and 1 mM ethylenediamine-tetraacetic acid (EDTA), and then homogenized by using a dounce homogenizer, and the supernatant was taken by centrifuging at 600×g for 15 minutes, and centrifuged at 100,000×g for 1 hour to discard the supernatant, and the remaining pellet was resuspended in 20 mM HEPES buffer (pH 7.4). The prepared DGAT2 overexpressing membrane protein was dispensed in 100 μl and stored at −80° C. until use. Protein concentration was quantified by using the BCA Protein Assay Kit (Thermo Scientific).
In vitro DGAT2 analysis was performed using a Phospholipid Flash Plate (PerkinElmer) based on the principle of SPA (Scintilation Proximity Assay). First, DGAT2 inhibition compounds serially diluted 5 times from 3 nM to 10 μM (final concentration, 1% DMSO) were mixed in a buffer solution containing 2 μg DGAT2-membrane protein and 20 mM HEPES, 20 mM MgCl2, 1 mg/mL BSA, 50 μM 1,2 sn-oleoyl glycerol (Sigma), put in a 96-well flash plate (FlashPlate) and reacted at 37° C. for 20 minutes, and then 1 μM [14C] ole oil CoA (PerkinElmer, NEC651050UC) was added to be a final volume of 100 μL and further reacted at 37° C. for 15 minutes. After the enzymatic reaction was completed, 100 μL of isopropanol was added, the plate was sealed with a film, and the plate was shaken slowly in a plate shaker. The next day, the amplified scintillation signal (cpm) in Topcounter (Packard) was measured to measure the degree of production of [14C]-labeled triacyl glycerol (TG) as a reaction product. The measured value when the compound was not treated was used as a positive control, and the measured value of the compound treated group was calculated as a relative % to measure the inhibition effect of the compound on TG production.
On to `CCOc1ccccc1O[C@@H]1CCCN(c2cncc(Nc3ncc(C(=O)O)s3)n2)C1` [Example 1, (R)-2-((6-(3-(2-ethoxyphenoxy)piperidin-1-yl)pyrazin-2-yl)amino)thiazole-5-carboxylic Acid], for which the IC50 came out at 6.2 µM.
For the compound `CCOc1ccccc1O[C@@H]1CCCN(c2cncc(Nc3nc(C)c(C)s3)n2)C1` [Example 2, (R)—N-(6-(3-(2-ethoxyphenoxy)piperidin-1-yl)pyrazin-2-yl)-4,5-dimethylthiazol-2-amine], the IC50 turned out to be 6.5 µM.
Next, `CCOc1ccccc1O[C@@H]1CCCN(c2cncc(Nc3nccs3)n2)C1` [Example 3, (R)—N-(6-(3-(2-ethoxyphenoxy)piperidin-1-yl)pyrazin-2-yl)thiazol-2-amine]: 6.3 µM.
The result for `CCOc1ccccc1O[C@@H]1CCCN(c2cncc(Nc3nc(-c4ccccc4)cs3)n2)C1` [Example 4, (R)—N-(6-(3-(2-ethoxyphenoxy)piperidin-1-yl)pyrazin-2-yl)-4-phenylthiazol-2-amine] reads greater than 10 µM; that for `CCOc1ccccc1O[C@@H]1CCCN(c2cncc(Nc3nc4ccccc4s3)n2)C1` [Example 5, (R)—N-(6-(3-(2-ethoxyphenoxy)piperidin-1-yl)pyrazin-2-yl)benzo[d]thiazol-2-amine], no less than 13 µM; that for `CCOc1ccccc1O[C@@H]1CCCN(c2cncc(Nc3nc4ccc(S(C)(=O)=O)cc4s3)n2)C1` [Example 7, (R)—N-(6-(3-(2-ethoxyphenoxy)piperidin-1-yl)pyrazin-2-yl)-6-(methanesulfonyl)benzo[d]thiazol-2-amine], 8.8 µM.
For `CCOc1ccccc1O[C@@H]1CCCN(c2cncc(Nc3cc(C(C)(C)COCCOC)no3)n2)C1` [Example 8, (R)—N-(6-(3-(2-ethoxyphenoxy)piperidin-1-yl)pyrazin-2-yl)-3-(1-(2-methoxyethoxy)-2-methylpropan-2-yl)isooxazol-5-amine], the IC50 came to 0.55 µM.
Next, `CCOc1ccccc1O[C@@H]1CCCN(c2cncc(Nc3nc(-c4ccccc4)co3)n2)C1` [Example 9, (R)—N-(6-(3-(2-ethoxyphenoxy)piperidin-1-yl)pyrazin-2-yl)-4-phenyloxazol-2-amine]: 2.3 µM; `CCOc1ccccc1O[C@@H]1CCCN(c2cncc(Nc3nc4ccccc4o3)n2)C1` [Example 10, (R)—N-(6-(3-(2-ethoxyphenoxy)piperidin-1-yl)pyrazin-2-yl)benzo[d]oxazol-2-amine]: 0.25 µM.
As for `CCOc1ccccc1O[C@@H]1CCCN(c2cncc(Nc3nc4cc(Cl)ccc4o3)n2)C1` [Example 11, (R)-5-chloro-N-(6-(3-(2-ethoxyphenoxy)piperidin-1-yl)pyrazin-2-yl)benzo[d]oxazol-2-amine], the IC50 is 0.059 µM.
In the case of `CCOc1ccccc1O[C@@H]1CCCN(c2cncc(Nc3nc4cc(CC(=O)O)ccc4o3)n2)C1` [Example 12, (R)-2-(2-((6-(3-(2-ethoxyphenoxy)piperidin-1-yl)pyrazin-2-yl)amino)benzo[d]oxazol-5-yl)acetic Acid], the IC50 was 3.4 µM.
Take `CCOc1ccccc1O[C@@H]1CCCN(c2cncc(Nc3nc4cc(C(C)(C)C(=O)O)ccc4o3)n2)C1` [Example 13, (R)-2-(2-((6-(3-(2-ethoxyphenoxy)piperidin-1-yl)pyrazin-2-yl)amino)benzo[d]oxazol-5-yl)-2-methylpropanoic Acid]: the IC50 was found to be 0.96 µM.
Consider `CCOc1ccccc1O[C@@H]1CCCN(c2cncc(Nc3nc4cc(CC(C)(C)C(=O)O)ccc4o3)n2)C1` [Example 14, (R)-3-(2-((6-(3-(2-ethoxyphenoxy)piperidin-1-yl)pyrazin-2-yl)amino)benzo[d]oxazol-5-yl)-2,2-dimethylpropanoic Acid], for which the 50% inhibitory concentration (IC50) is 3.1 µM.
The result for `CCOc1ccccc1O[C@@H]1CCCN(c2cncc(Nc3nc4cc(/C=C/C(=O)O)ccc4o3)n2)C1` [Example 15, (R,E)-3-(2-((6-(3-(2-ethoxyphenoxy)piperidin-1-yl)pyrazin-2-yl)amino)benzo[d]oxazol-5-yl)acrylic Acid] reads 7.3 µM; that for `CCOc1ccccc1O[C@@H]1CCCN(c2cncc(Nc3nc4cc(CCC(=O)O)ccc4o3)n2)C1` [Example 16, (R)-3-(2-((6-(3-(2-ethoxyphenoxy)piperidin-1-yl)pyrazin-2-yl)amino)benzo[d]oxazol-5-yl)propanoic Acid], greater than 10 µM; that for `CCOc1ccccc1O[C@@H]1CCCN(c2cncc(Nc3nc4ccc(C(C)(C)C(=O)O)cc4o3)n2)C1` [Example 17, (R)-2-(2-((6-(3-(2-ethoxyphenoxy)piperidin-1-yl)pyrazin-2-yl)amino)benzo[d]oxazol-6-yl)-2-methylpropanoic Acid], 1.3 µM.
Next, `CCOc1ccccc1O[C@@H]1CCCN(c2cncc(Nc3nc4ccc(CCC(=O)O)cc4o3)n2)C1` [Example 18, (R)-3-(2-((6-(3-(2-ethoxyphenoxy)piperidin-1-yl)pyrazin-2-yl)amino)benzo[d]oxazol-6-yl)propanoic Acid]: 1.1 µM; `CCOc1ccccc1O[C@@H]1CCCN(c2cncc(Nc3cc[nH]n3)n2)C1` [Example 19, (R)-6-(3-(2-ethoxyphenoxy)piperidin-1-yl)-N-(1H-pyrazol-3-yl)pyrazin-2-amine]: 1.7 µM; `CCOc1ccccc1O[C@@H]1CCCN(c2cncc(Nc3ccn(CC(=O)O)n3)n2)C1` [Example 20, (R)-2-(3-((6-(3-(2-ethoxyphenoxy)piperidin-1-yl)pyrazin-2-yl)amino)-1H-pyrazol-1-yl)acetic Acid]: greater than 10 µM.
The result for `CCOc1ccccc1O[C@@H]1CCCN(c2cncc(Nc3ccn(CC(C)(C)C(=O)O)n3)n2)C1` [Example 21, (R)-3-(3-((6-(3-(2-ethoxyphenoxy)piperidin-1-yl)pyrazin-2-yl)amino)-1H-pyrazol-1-yl)-2,2-dimethylpropanoic Acid] reads greater than 10 µM.
Regarding `CCOc1ccccc1O[C@@H]1CCCN(c2cncc(Nc3nnnn3C)n2)C1` [Example 23, (R)-6-(3-(2-ethoxyphenoxy)piperidin-1-yl)-N-(1-methyl-1H-tetrazol-5-yl)pyrazin-2-amine], the IC50 was 0.27 µM.
The result for `CCOc1ccccc1O[C@@H]1CCCN(c2cncc(Nc3ccccc3)n2)C1` [Example 24, (R)—N-6-(3-(2-ethoxyphenoxy)piperidin-1-yl)-N-phenylpyrazin-2-amine] reads 5.5 µM.
For the compound `CCOc1ccccc1O[C@@H]1CCCN(c2cncc(Nc3ccc(CC(=O)NCc4ccncc4)cc3)n2)C1` [Example 26, (R)-2-(4-((6-(3-(2-ethoxyphenoxy)piperidin-1-yl)pyrazin-2-yl)amino)phenyl)-N-(pyridin-4-ylmethyl)acetamide], the IC50 stood at 6.7 µM.
Regarding `CCOc1ccccc1O[C@@H]1CCCN(c2cncc(Nc3ccc(C(C)(C)C(=O)O)cc3)n2)C1` [Example 27, (R)-2-(4-((6-(3-(2-ethoxyphenoxy)piperidin-1-yl)pyrazin-2-yl)amino)phenyl)-2-methylpropanoic Acid], the IC50 was greater than 10 µM.
`CCOc1ccccc1O[C@@H]1CCCN(c2cncc(Nc3cccc(C(C)(C)C(=O)O)c3)n2)C1` [Example 29, (R)-2-(3-((6-(3-(2-ethoxyphenoxy)piperidin-1-yl)pyrazin-2-yl)amino)phenyl)-2-methylpropanoic Acid]: the IC50 stood at 6.4 µM.
